Assay results: patent publication US7109203B2, “Sulfonamide derivatives” (Novartis AG, priority 2001, dated 2006)
Where a SMILES comes first, the peptide text is derived from it. [ ]: non-standard residue; d: D form. Oic = O=C(O)[C@@H]1C[C@@H]2CCCC[C@@H]2N1; Hyp = O=C(O)[C@@H]1C[C@@H](O)CN1; dTic = O=C(O)[C@H]1Cc2ccccc2CN1; 2Thi = N[C@@H](Cc1cccs1)C(=O)O

Biological target: T1, human bradykinin B1 receptor (Homo sapiens, UniProt P46663)
T1 construct: To upregulate expression of the B1 receptor the cells are treated with 100 units/ml of IL-1β; endogenous in cells; host or cells: WI-38 cells treated with 100 units/ml IL-1β for 3 hours
T1 sequence (P46663 1-353): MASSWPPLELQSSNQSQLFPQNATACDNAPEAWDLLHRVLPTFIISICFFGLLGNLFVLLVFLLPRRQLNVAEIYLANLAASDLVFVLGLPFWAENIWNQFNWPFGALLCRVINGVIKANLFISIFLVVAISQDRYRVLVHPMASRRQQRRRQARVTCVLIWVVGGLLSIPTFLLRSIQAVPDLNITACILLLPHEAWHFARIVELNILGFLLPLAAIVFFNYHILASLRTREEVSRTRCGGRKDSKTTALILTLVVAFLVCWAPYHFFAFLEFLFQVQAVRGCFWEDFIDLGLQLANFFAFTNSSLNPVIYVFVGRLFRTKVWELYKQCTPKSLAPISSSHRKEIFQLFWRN
Assay: Test I: Bradykinin Receptor Binding Assay ([3H]-desArg10kallidin displacement, IL-1β-treated WI-38 cells)
Conditions: displacement of [3H]-desArg10kallidin, KI from IC50 by Cheng-Prussoff equation
Description: WI-38 cells are grown in Dulbecco's Modified Eagle Medium s supplemented with 1% non-essential amino acids, 2 mM L-glutamine, 100 IU/ml penicillin, 100 μg/ml streptomycin and 10% foetal calf serum. The cells are grown in 175 cm^2 tissue culture flasks and split approximately 1–2 times a week at a ratio of 1:2 using trypsin to detach the cells. WI-38 cells are plated onto 24 well plates at approximately 50,000 cells per well and grown overnight. To upregulate expression of the B1 receptor the cells are treated with 100 units/ml of IL-1β for 3 hours prior to the assay. The binding buffer is 10 mM HEPES in Hank's Balanced Salt solution pH 7.4 plus 1 mM phenanthroline and 0.14 mg/ml bacitracin. […] Non-specific binding is determined with 3 μM desArg^10kallidin. […] The cells are solubilised with 0.2% SDS and the amount of radioactivity in the samples determined by liquid scintillation counting. […]
Results are calculated by subtracting the value for non-specific binding from all values and calculating the amount of binding for each concentration of compound as a percentage of the specific binding with no compound. The IC50 values are calculated in ORIGIN using a logistic fit. KI values are calculated from the IC50 values using the Cheng-Prussoff equation (KI=IC50/(1+([RL]/Kd)) where [RL] is the radioligand concentration.

Structure (SMILES)	Ki [nM]
O=C(O)CN(CCOc1ccc2c(c1)CCC2)S(=O)(=O)c1ccc(Br)cc1Cl [Example 5, {(4-bromo-2-chloro-benzenesulfonyl)-[2-(indan-5-yloxy)-ethyl]-amino}-acetic acid]	~300
N=C(N)NCCC[C@@H](N)C(=O)N[C@@H](CCCNC(=N)N)C(=O)N1CCC[C@H]1C(=O)N1C[C@H](O)C[C@H]1C(=O)NCC(=O)N[C@@H](Cc1cccs1)C(=O)N[C@@H](CO)C(=O)N1Cc2ccccc2C[C@@H]1C(=O)N1[C@H](C(=O)O)C[C@@H]2CCCC[C@@H]21 [desArg^10HOE140, D-Arg-[Hyp^3, Thi^5, D-Tic^7, Oic^8]desArg^9 bradykinin] (H-[dR]RP[Hyp]G[2Thi]S[dTic][Oic]-OH; N-terminus and C-terminus assumed)	63
